Test systems include NCI/ADR-RES ovarian; A549 NSCLC; KM12 colon; SK-MEL-5 melanoma; HT29 colon; EKVX NSCLC; HCT-15 colon; UO-31 renal; NCI-H460 lung; HL-60(TB) leukemia; CAKI-1 renal; ACHN renal; SNB-19 CNS; UACC-62 melanoma; OVCAR-5 ovarian; IGROV1 ovarian; PC-3 prostate; NCI-H23 lung; HOP-92 NSCLC.
What all share (test): NCI-60 cell line screen, 48 h

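Cells were grown in 96-well plates and exposed to each compound for 48 hours at five concentrations; endpoints were interpolated linearly between bracketing concentrations, or set to the highest concentration if not reached. GI50: concentration for 50% inhibition of growth. TGI denotes the concentration required for complete inhibition of growth.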

As to `C=Cc1cc2c(cc1O)CC[C@@H]1[C@@H]2CC[C@]2(C)[C@@H](O)CC[C@@H]12`, the TGI in the assay on NCI/ADR-RES ovarian is 5.3 µM; with A549 NSCLC it was 19.9 µM; in the assay with KM12 colon it was 14.9 µM; in the assay with SK-MEL-5 melanoma, 15.7 µM; in the assay with HT29 colon, 29.5 µM; in the assay with EKVX NSCLC, 29 µM. Further, the TGI in the assay with HCT-15 colon was determined as 28.8 µM; in the assay on UO-31 renal, 20.5 µM; in the assay with NCI-H460 lung, 21.1 µM; with HL-60(TB) leukemia it was 7.27 µM; with CAKI-1 renal it was 20.8 µM; in the assay on ACHN renal, 21.1 µM. Besides, the TGI was 13.6 µM with SNB-19 CNS; 8.65 µM in the assay on UACC-62 melanoma; 41.3 µM with OVCAR-5 ovarian; 19.3 µM in the assay with IGROV1 ovarian; 36.5 µM in the assay on PC-3 prostate; 14.3 µM in the assay with NCI-H23 lung. For the same molecule, the GI50 with UACC-62 melanoma was 2.53 µM.
For the molecule `O=C(CN1CCOCC1)CC(O)(C(F)(F)F)C(F)(F)F`, the TGI in the assay on NCI/ADR-RES ovarian, in the assay on A549 NSCLC, in the assay on KM12 colon, in the assay with SK-MEL-5 melanoma, in the assay on EKVX NSCLC and in the assay on HCT-15 colon was over 100 µM in each case. Besides, the TGI in the assay with UO-31 renal, in the assay with HL-60(TB) leukemia, in the assay with CAKI-1 renal, in the assay on ACHN renal, in the assay on SNB-19 CNS and in the assay on UACC-62 melanoma was over 100 µM in each case. Besides, the TGI with OVCAR-5 ovarian is over 100 µM; in the assay on IGROV1 ovarian, over 100 µM; in the assay on HOP-92 NSCLC it was 97.2 µM; in the assay on PC-3 prostate, 99.8 µM; with NCI-H23 lung, over 100 µM.
With `CSc1nc(O)c(/C=C2\C=Nc3ccccc32)[nH]1`, the TGI in the assay on NCI/ADR-RES ovarian, in the assay with A549 NSCLC, in the assay with SK-MEL-5 melanoma, with HT29 colon, with HCT-15 colon and in the assay with UO-31 renal was over 100 µM in each case. Further, the TGI in the assay with NCI-H460 lung is over 100 µM; in the assay with HL-60(TB) leukemia, 94.1 µM; in the assay on ACHN renal, over 100 µM; in the assay on SNB-19 CNS, over 100 µM; in the assay on UACC-62 melanoma, over 100 µM; with OVCAR-5 ovarian, over 100 µM. Moreover, the TGI in the assay on IGROV1 ovarian, with HOP-92 NSCLC, with PC-3 prostate and in the assay on NCI-H23 lung was over 100 µM throughout.
Take `CC(C)(C)OC(=O)Nc1cc(-c2ccccc2)co1`: the TGI with NCI/ADR-RES ovarian, with A549 NSCLC, in the assay with KM12 colon, in the assay on SK-MEL-5 melanoma, in the assay on EKVX NSCLC and with HCT-15 colon was over 100 µM in each case. The TGI in the assay on UO-31 renal, with HL-60(TB) leukemia, in the assay on CAKI-1 renal, in the assay on ACHN renal, in the assay on SNB-19 CNS and with UACC-62 melanoma was over 100 µM in each case. In addition, the TGI in the assay on OVCAR-5 ovarian was over 100 µM; in the assay on IGROV1 ovarian, over 100 µM; with HOP-92 NSCLC it was 86.8 µM; with PC-3 prostate it was over 100 µM; with NCI-H23 lung, over 100 µM.
For `COc1ccc2c(c1)CCCN1CCc3cc(OC)c(OC)cc3C21` (configuration not stated), the TGI in the assay on NCI/ADR-RES ovarian is 56 µM; in the assay with A549 NSCLC, over 100 µM; in the assay on KM12 colon, over 100 µM; with SK-MEL-5 melanoma it was over 100 µM; in the assay on HT29 colon, over 100 µM; in the assay on EKVX NSCLC, over 100 µM. Also, the TGI in the assay on HCT-15 colon, with UO-31 renal, with HL-60(TB) leukemia, in the assay on CAKI-1 renal, in the assay on ACHN renal and with SNB-19 CNS was over 100 µM in each case. Besides, the TGI with UACC-62 melanoma, with OVCAR-5 ovarian, in the assay on IGROV1 ovarian and with PC-3 prostate was over 100 µM throughout.
As to `S=C(c1c[nH]c2ccccc12)N1CCN(c2ccccc2)CC1`, the TGI in the assay on NCI/ADR-RES ovarian, in the assay with KM12 colon, in the assay on SK-MEL-5 melanoma, in the assay on HT29 colon, in the assay on EKVX NSCLC and with HCT-15 colon was over 100 µM throughout. In addition, the TGI with NCI-H460 lung, with HL-60(TB) leukemia, in the assay on CAKI-1 renal, in the assay on ACHN renal, in the assay with SNB-19 CNS and in the assay with UACC-62 melanoma was over 100 µM each time. Also, the TGI in the assay with OVCAR-5 ovarian, with IGROV1 ovarian, in the assay on PC-3 prostate and with NCI-H23 lung was over 100 µM throughout.
As to `COc1ccc(C(C#N)NCCCCCCNC(C#N)c2ccc(OC)cc2)cc1` (configuration not stated), the TGI with NCI/ADR-RES ovarian, with A549 NSCLC, with KM12 colon, in the assay on SK-MEL-5 melanoma, in the assay on HT29 colon and in the assay on EKVX NSCLC was over 100 µM each time. Moreover, the TGI in the assay with HCT-15 colon, in the assay on UO-31 renal, with HL-60(TB) leukemia, in the assay on CAKI-1 renal, in the assay on ACHN renal and in the assay with SNB-19 CNS was over 100 µM in each case. The TGI in the assay with UACC-62 melanoma, in the assay with OVCAR-5 ovarian, in the assay on IGROV1 ovarian, in the assay with HOP-92 NSCLC, in the assay on PC-3 prostate and in the assay with NCI-H23 lung was over 100 µM in each case.
Regarding `Nn1c(SCC(=O)NCc2ccccc2)nc2ccccc2c1=O`, the TGI in the assay on NCI/ADR-RES ovarian, in the assay with A549 NSCLC, with KM12 colon, in the assay with SK-MEL-5 melanoma, in the assay with HT29 colon and in the assay with EKVX NSCLC was over 100 µM throughout. Also, the TGI with HCT-15 colon, in the assay with UO-31 renal, in the assay with NCI-H460 lung, in the assay with CAKI-1 renal, in the assay with ACHN renal and with SNB-19 CNS was over 100 µM in each case. In addition, the TGI in the assay with UACC-62 melanoma, with OVCAR-5 ovarian, with IGROV1 ovarian, in the assay on HOP-92 NSCLC, with PC-3 prostate and with NCI-H23 lung was over 100 µM each time.

For the origin of these results see PubChem BioAssay (NCI).
